Data reported in US20190343908A1, “Therapeutic Combination for the Treatment of Cancer” (Nerium Biotechnology Inc., priority 2011, published 2019).
“And” between values parts separate entries of the source, which are not always exact repeats. Identical values can stand only once.

Experiments:
Type in all cases: cell-based
[1] = tested on: 22Rv1 (human prostate cancer); test: Sulforhodamine B (SRB) viability assay, 22Rv1
Text: (§1) Three different viability assays were chosen to complement each other and yielded results dependent on concentration and cell line: the Methyl Tetrazolium dye assay, the Sulforhodamine B fluorescent dye assay, and the Crystal Violet dye assay.
(§2) The Sulforhodamine B and Crystal Violet assays provide information about protein and were used to complement the Methyl-Tetrazolium dye assay. […] It is used for the quantification of cellular proteins of cultured cells. The assay using Crystal Violet, a dye that binds electrostatically to proteins and stains DNA, provides a reliable, simple assay for measuring viability of cells.
(§3) The Methyl Tetrazolium, Sulforhodamine B, and Crystal Violet assays were used to assess cell viabilities. The incubation times were 24 hours, 48 hours, and 72 hours. The Nerium oleander extract Anvirzel™ (a hot water extract of oleander obtained from Salud Integral, Honduras) was tested in concentrations ranging from 0.01 ng/mL to 10 ng/mL.
(§4) Cells were detached by trypsinization (Trypsin-0.25% EDTA, Invitrogen, 25200-072) during the logarithmic phase of culture growth and plated in 96-well plates (18.000 cells/well) (Corning, Costar 359) in a final volume of 200 μl of medium per well. […] The absorbance was measured after 24 hours, 48 hours, and 72 hours of incubation.
For the Sulforhodamine B assay, 96-well plates were fixed by 10% trichloroacetic acid (Fluka, 91228) and were incubated at 4° C. for 1 hour. Afterwards, plates were rinsed with water and cells were stained with 0.4% Sulforhodamine B (Sigma, 341738), dissolved in 1% acetic acid (Carlo Ebra, 401422) for 15 minutes at room temperature (RT). The unbound stain was washed twice with 1% acetic acid. Finally, 10 mM Tris Buffer pH 10.5 (Sigma, T6791) was added to dissolve the dye.
(§5) The optical density of each plate was measured on a μQuant spectrophotometer and the data were analyzed with Gen5 software (μQuant Biomolecular Spectrophotometer MQX200 and Gen5™ Microplate Data Collection & Analysis software, BioTek® Instruments. Inc, April 2008). Absorbance was measured at 570 nm for all assays and a second wavelength was measured in order to subtract noise. For the Methyl-Tetrazolium assay this second wavelength was 630 nm and for the Sulforhodamine B and Crystal Violet assays it was 690 nm.

[2] = tested on: PC3 (human prostate cancer); test: Methyl-Tetrazolium viability assay, PC3; parameters: key: absorbance at 570 nm (optical density)
Text: The Methyl-Tetrazolium dye assay measures the activity of enzymes in mitochondria. The dye precursor is taken up by cells, where it undergoes reduction to the purple formazan. It measures only the mitochondrial activity and, thus, it is not always a reliable indication of whether the cells themselves are alive or dead, since even a recently dead cell has […] enzyme activity in mitochondria. Intracellular glucose concentration, pH, and time before assay all affect the measurements.
as §3, §4
For the Methyl-Tetrazolium assay, the dye (Sigma, M2128; 5 mg/mL, diluted in phosphate-buffered saline) was added to each well and plates were incubated for 3 hours at 37° C. After the end of the incubation period, the medium was discarded and the cells were rinsed with phosphate-buffered saline. Finally, the formazan crystals were dissolved in dimethylsulphoxide (Sigma, D4540).
as §5

[3] = tested on: T47D (human breast cancer); test: Crystal Violet viability assay, T47D; parameters: key: absorbance at 570 nm (crystal violet), background wavelength subtracted
Text: as §1, §2, §3, §4
For the Crystal Violet assay, the medium was removed from the 96-well plates, the plates rinsed with PBS (Sigma, P3813) and then the cells were […] by the addition of 10% formalin (MERCK, 1.04003.2500) for 20 minutes at RT. Formalin was removed and 0.25% aqueous crystal violet (Sigma, HT901), dissolved in water, was added for 10 minutes at RT. Unbound Crystal Violet was rinsed by washing with water and finally 33% acetic acid was added to dissolve the dye.
as §5

N.N.[Cl][Pt][Cl] [cisplatin]
SRB 24 h Average ([1]; 22Rv1 Run 1, 0.1 μg/ml CDDP): 1.847 | SRB 48 h Average ([1]; 22Rv1 Run 1, 0.1 μg/ml CDDP): 1.685 | SRB 72 h Average ([1]; 22Rv1 Run 1, 0.1 μg/ml CDDP): 2.018 | SRB 24 h Average ([1]; 22Rv1 Run 1, 1 μg/ml CDDP): 1.943 | SRB 48 h Average ([1]; 22Rv1 Run 1, 1 μg/ml CDDP): 1.549 | SRB 72 h Average ([1]; 22Rv1 Run 1, 1 μg/ml CDDP): 1.56 | SRB 24 h Average ([1]; 22Rv1 Run 1, 10 μg/ml CDDP): 1.744 | SRB 48 h Average ([1]; 22Rv1 Run 1, 10 μg/ml CDDP): 1.217 | SRB 72 h Average ([1]; 22Rv1 Run 1, 10 μg/ml CDDP): 1.141 | SRB 24 h Average ([1]; 22Rv1 Run 1, 100 μg/ml CDDP): 1.878 | SRB 48 h Average ([1]; 22Rv1 Run 1, 100 μg/ml CDDP): 1.121 | SRB 72 h Average ([1]; 22Rv1 Run 1, 100 μg/ml CDDP): 1.204 | SRB 24 h Average ([1]; 22Rv1 Run 2, 0.1 μg/ml CDDP): 1.727 | SRB 48 h Average ([1]; 22Rv1 Run 2, 0.1 μg/ml CDDP): 2.139 | SRB 72 h Average ([1]; 22Rv1 Run 2, 0.1 μg/ml CDDP): 2.392 | SRB 24 h Average ([1]; 22Rv1 Run 2, 1 μg/ml CDDP): 1.647 | SRB 48 h Average ([1]; 22Rv1 Run 2, 1 μg/ml CDDP): 1.824 | SRB 72 h Average ([1]; 22Rv1 Run 2, 1 μg/ml CDDP): 1.395 | SRB 24 h Average ([1]; 22Rv1 Run 2, 10 μg/ml CDDP): 1.49 | SRB 48 h Average ([1]; 22Rv1 Run 2, 10 μg/ml CDDP): 1.46 | SRB 72 h Average ([1]; 22Rv1 Run 2, 10 μg/ml CDDP): 1.606 | SRB 24 h Average ([1]; 22Rv1 Run 2, 100 μg/ml CDDP): 1.495 | SRB 48 h Average ([1]; 22Rv1 Run 2, 100 μg/ml CDDP): 1.621 | SRB 72 h Average ([1]; 22Rv1 Run 2, 100 μg/ml CDDP): 1.247 | Average absorbance, SRB 24 h ([1]; 22Rv1 Run 3, 0.1 μg/ml CDDP): 1.352 and 0.85 | MTT Average ([2]; PC3 Run 1, 24 h, 0.1 μg/ml CDDP): 0.137 | MTT Average ([2]; PC3 Run 1, 24 h, 1 μg/ml CDDP): 0.049 | MTT Average ([2]; PC3 Run 1, 24 h, 10 μg/ml CDDP): 0.091 | MTT Average ([2]; PC3 Run 1, 24 h, 100 μg/ml CDDP): 0.053 | MTT Average ([2]; PC3 Run 1, 48 h, 0.1 μg/ml CDDP): 0.162 | MTT Average ([2]; PC3 Run 1, 48 h, 1 μg/ml CDDP): 0.027 | MTT Average ([2]; PC3 Run 1, 48 h, 10 μg/ml CDDP): 0.064 | MTT Average ([2]; PC3 Run 1, 48 h, 100 μg/ml CDDP): 0.029 | MTT Average ([2]; PC3 Run 1, 72 h, 0.1 μg/ml CDDP): 0.188 | MTT Average ([2]; PC3 Run 1, 72 h, 1 μg/ml CDDP): 0.034 | MTT Average ([2]; PC3 Run 1, 72 h, 10 μg/ml CDDP): 0.044 | MTT Average ([2]; PC3 Run 1, 72 h, 100 μg/ml CDDP): 0.029 | MTT Average ([2]; PC3 Run 2, 24 h, 0.1 μg/ml CDDP): 0.072 | MTT Average ([2]; PC3 Run 2, 24 h, 1 μg/ml CDDP): 0.04 | MTT Average ([2]; PC3 Run 2, 24 h, 10 μg/ml CDDP): 0.079 | MTT Average ([2]; PC3 Run 2, 24 h, 100 μg/ml CDDP): 0.052 | MTT Average ([2]; PC3 Run 2, 48 h, 0.1 μg/ml CDDP): 0.195 | MTT Average ([2]; PC3 Run 2, 48 h, 1 μg/ml CDDP): 0.051 | MTT Average ([2]; PC3 Run 2, 48 h, 10 μg/ml CDDP): 0.074 | MTT Average ([2]; PC3 Run 2, 48 h, 100 μg/ml CDDP): 0.047 | MTT Average ([2]; PC3 Run 2, 72 h, 0.1 μg/ml CDDP): 0.223 | MTT Average ([2]; PC3 Run 2, 72 h, 1 μg/ml CDDP): 0.039 | MTT Average ([2]; PC3 Run 2, 72 h, 10 μg/ml CDDP): 0.068 | MTT Average ([2]; PC3 Run 2, 72 h, 100 μg/ml CDDP): 0.037 | MTT Average ([2]; PC3 Run 3, 24 h, 0.1 μg/ml CDDP): 0.088 | MTT Average ([2]; PC3 Run 3, 24 h, 1 μg/ml CDDP): 0.041 | MTT Average ([2]; PC3 Run 3, 24 h, 10 μg/ml CDDP): 0.096 | MTT Average ([2]; PC3 Run 3, 24 h, 100 μg/ml CDDP): 0.053 | MTT Average ([2]; PC3 Run 3, 48 h, 1 μg/ml CDDP): 0.033 | MTT Average ([2]; PC3 Run 3, 48 h, 10 μg/ml CDDP): 0.062 | MTT Average ([2]; PC3 Run 3, 48 h, 100 μg/ml CDDP): 0.03 | MTT Average ([2]; PC3 Run 3, 72 h, 0.1 μg/ml CDDP): 0.151 | MTT Average ([2]; PC3 Run 3, 72 h, 1 μg/ml CDDP): 0.027 | MTT Average ([2]; PC3 Run 3, 72 h, 10 μg/ml CDDP): 0.057 | MTT Average ([2]; PC3 Run 3, 72 h, 100 μg/ml CDDP): 0.028 | CVE Average ([3]; T47D Run 1, 24 h, 0.1 μg/ml CDDP): 0.64 | CVE Average ([3]; T47D Run 1, 24 h, 10 μg/ml CDDP): 0.417 | CVE Average ([3]; T47D Run 1, 48 h, 0.1 μg/ml CDDP): 0.67 | CVE Average ([3]; T47D Run 1, 48 h, 1 μg/ml CDDP): 0.369 | CVE Average ([3]; T47D Run 1, 48 h, 10 μg/ml CDDP): 0.518 | CVE Average ([3]; T47D Run 1, 48 h, 100 μg/ml CDDP): 0.319 | CVE Average ([3]; T47D Run 1, 72 h, 0.1 μg/ml CDDP): 0.654 | CVE Average ([3]; T47D Run 1, 72 h, 1 μg/ml CDDP): 0.347 | CVE Average ([3]; T47D Run 1, 72 h, 10 μg/ml CDDP): 0.34 | CVE Average ([3]; T47D Run 1, 72 h, 100 μg/ml CDDP): 0.293 | CVE Average ([3]; T47D Run 2, 24 h, 1 μg/ml CDDP): 0.385 | CVE Average ([3]; T47D Run 2, 24 h, 10 μg/ml CDDP): 0.597 | CVE Average ([3]; T47D Run 2, 24 h, 100 μg/ml CDDP): 0.317 | CVE Average ([3]; T47D Run 2, 48 h, 0.1 μg/ml CDDP): 0.45 | CVE Average ([3]; T47D Run 2, 48 h, 1 μg/ml CDDP): 0.223 | CVE Average ([3]; T47D Run 2, 48 h, 10 μg/ml CDDP): 0.315 | CVE Average ([3]; T47D Run 2, 72 h, 0.1 μg/ml CDDP): 1.124 | CVE Average ([3]; T47D Run 2, 72 h, 1 μg/ml CDDP): 0.33 | CVE Average ([3]; T47D Run 2, 72 h, 10 μg/ml CDDP): 0.334 | CVE Average ([3]; T47D Run 2, 72 h, 100 μg/ml CDDP): 0.381 | CVE Average ([3]; T47D Run 3, 24 h, 1 μg/ml CDDP): 0.4 | CVE Average ([3]; T47D Run 3, 24 h, 10 μg/ml CDDP): 0.488 | CVE Average ([3]; T47D Run 3, 24 h, 100 μg/ml CDDP): 0.385 | CVE Average ([3]; T47D Run 3, 48 h, 0.1 μg/ml CDDP): 0.778 | CVE Average ([3]; T47D Run 3, 48 h, 1 μg/ml CDDP): 0.435 | CVE Average ([3]; T47D Run 3, 48 h, 100 μg/ml CDDP): 0.544 | CVE Average ([3]; T47D Run 3, 72 h, 0.1 μg/ml CDDP): 0.722 | CVE Average ([3]; T47D Run 3, 72 h, 1 μg/ml CDDP): 0.223 | CVE Average ([3]; T47D Run 3, 72 h, 10 μg/ml CDDP): 0.31 | CVE Average ([3]; T47D Run 3, 72 h, 100 μg/ml CDDP): 0.22
